Structures are written as SMILES.

For test [1], the system named is T1, CpomOR22.
T1 construct: gene OR22
In words: SSR dose response and GC-SSR in transgenic Drosophila ab3A neurons. Also noted: species or system Cydia pomonella.

Test [2] has as its system T2, CpomOR22.
T2 construct: gene OR22; with CpomOrco
In words: two-electrode voltage clamp, Xenopus oocytes, dose response; also GC-SSR. In kind it is cell-based, Cydia pomonella. A general note: In two-electrode clamp one electrode senses voltage and the other passes current.

For test [3], the system named is T2, CpomOR22. The test can be described thus: two-electrode voltage clamp, Xenopus oocytes, dose response. The class given is cell-based, Cydia pomonella. The text has this: two-electrode voltage clamp, Xenopus oocytes, dose response on CpomOR22 | CpomOR22 dose responsiveness to undecanal and γ-undecalactone across five orders of magnitude

Take `CCCC/C=C\CCCCC=O` [(Z)−6-undecenal]: in the test on CpomOR22 [1], the EC50 turned out to be 2.903 ± 1.709 µg. As for `CCCCCCCCCCC=O` [undecanal], in the test on CpomOR22 [2], the EC50 came to 16.7 µM. `CCCCCCCC1CCC(=O)O1` (stereo not drawn) [γ-undecalactone]: in the test with CpomOR22 [3], the EC50 amounted to 8.4 µM.

Source of the values: publication PMC11861427, “Functional Characterization of a Female-Biased Chemoreceptor of the Codling Moth (Cydia pomonella) Responding to Aldehydes and Other Volatile Compounds” (Journal of Chemical Ecology, 2025).
